Test results published in patent US12156888B2, “CAR T-cells for the treatment of bone metastatic cancer” (H. Lee Moffitt Cancer Center and Research Institute, Inc., priority 2018, dated 2024).

Key:
[1] = test system: C4-2B-PSCA-Luc human CRPC prostate cancer cells; experiment: IPP production in response to zoledronate, LC-MS/MS of cell extracts; format: cell-based; details: C4-2B-PSCA-Luc cells, 10 μM or 25 μM, 1 h or 18 h
Procedure: (§1) Following treatment of tumor cells with ZOL, IPP was measured in cell extracts by tandem LC-MS/MS, using AppCp as an internal standard. […] ZOL treatment was administered for 1 h or 18 h, at 2 different doses: 10 μM or 25 μM.
(§2) In order to verify that zoledronate effectively induces IPP accumulation in a model system, C4-2B-PSCA-Luc human CRPC prostate cancer cells were treated with 10 μM or 25 μM of zoledronate, for 1 h or 18 h. Intracellular IPP levels were measured using a semi-quantitative mass spectrometry assay. T47D breast cancer cells were used as positive control, and Panc02.03 pancreatic cancer cells were used as negative controls.

[2] = test system: Panc02.03 pancreatic cancer cells; experiment: as above; format: cell-based; details: Panc02.03 cells, prolonged treatment with high doses
Procedure: as §1, §2

T47D breast cancer cells = experiment: as above; format: cell-based
Procedure: as §1, §2

C4-2B-PSCA cells = experiment: RTCA cytotoxicity assay of γδ T-cells; format: cell-based, human
Procedure: Summary of RTCA analysis of C4-2B-PSCA, or control PSCA null C4-2B, cells co-cultured with γδ CAR-T cells, or untransduced controls (UT). FIGS. […] show tumor cells without ZOL pretreatment. FIGS. 6C and 6D show tumor cells with 2 h ZOL pretreatment. FIGS. 6A and 6C show tumor cell viability 2 h post co-culture. FIGS. 6B and 6D show 30 h post co-culture.
The CAR- and TCR-mediated mechanism of tumor cell recognition were tested using the CRPC C4-2B cell line.

[3] = test system: C4-2B luciferase expressing cells; experiment: Intratibial C4-2B bone metastatic CRPC model with human γδ T-cells, zoledronate or vehicle; format: in vivo, NSG mice; details: for Percentage of CD3Vd2 positive cells in flushed tibias, higher than control: zoledronate 0.1 mg/Kg
Text: FIGS. 7A to 7D show C4-2B cells inoculated into NSG mice and treated with either zoledronate (ZOL) or vehicle control. After establishment and randomization mice ([…]) were inoculated with 3.5×10^6 […]. Subsets of mice were removed from the study at 1, 3 and 5 days late. […] Number illustrate the percentage of γδ T-cells in the total marrow analysis over time. […] FIG. 7C is a graph showing RLUs quantitated over time and the growth rates calculated for each group. Asterisk indicates statistical significance. Mice at the final time point were assessed for γδ T-cell localization (CD3), apoptosis (cleaved caspase-3; CC3) and proliferation (phospho histone H3; pHH3). […] Arrows indicate positivity. DAPI was used as a nuclear counterstain.
Next, the anti-tumor activity of γδ T-cells on established bone metastatic CRPC lesions in vivo was assessed. NSG (NOD.Cg-Prkdcscid112rgtm1Wjl/SzJ) immunocompromised mice were intratibially inoculated with C4-2B luciferase expressing cells (1×10^5) and once established were randomized in zoledronate (0.1 mg/Kg) or vehicle (saline) groups (n=25 per group) based on relative luminescence unit (RLU) measurement. One week later, mice received tail vein injections of human γδ T-cells (3.5×10^6/mouse).
Groups of mice (n=5) were removed from the study 1, 3, 5 days subsequent to injection with tibias being flushed and assessed for human CD3 Vd2 content by flow cytometry. […] Bioluminescence was used as a correlate of tumor growth.

[4] = test system: PSCA-expressing C42B prostate cancer cells; experiment: IFNγ ELISA of co-culture supernatants; format: cell-based, human
Procedure: IFNγ ELISA of co-culture supernatants of C4-2B-PSCA cells exposed to media (negative control) or the indicated T cells, in presence of increasing concentrations of Zol (0, 0.4 and 0.8 μM).
Four variants of the anti-PSCA CAR were generated containing either CD27 (CD27z), CD28 (CD28z), or 4-1BB (BBz) costimulation. The fourth variant contains a CD27 costimulatory domain where the TRAF-binding site has been replaced with an inert flexible linker (G4S). γδ CAR-T cells expressing either CAR variant (or GFP as controls) were generated, and cocultured with PSCA-expressing C42B prostate cancer cells, in presence or absence of zoledronate, at the indicated doses. The presence of interferon-γ in the supernatants (measured by ELISA) was used as a marker of T cell activation. CAR-expressing T cells (but not untransduced or GFP-transduced cells) reacted to target cells by producing interferon-γ (solid bars).
γδ CAR-T cells recognize tumor cells via CAR and via TCR. The CAR- and TCR-mediated mechanisms of tumor cell recognition were tested using the CRPC C4-2BPSCA cell line. Cancer cells were treated with either untransduced (UT) control or CAR-expressing γδ T-cells, in the presence or absence of ZOL (0.4 μM). In presence of ZOL, control γδ T cells induced a cytotoxic effect at approx. 18 h, reflecting recognition of C4-2B-PSCA cells via TCR. […] The ability to induce a potent cytolytic effect with lesser cytokine production that can be modulated by ZOL is important since it may allow γδ (CAR−)T-cells to mediate more precise tumor killing, reducing the risk for complications related to massive cytokine release.

γδ (CAR)-T cells = experiment: IL-2 secretion by γδ (CAR)-T cells; format: cell-based
[5] = study endpoint, compared to control
[6] = coculture with PSCA-expressing C42B cells

Compound: O=P(O)(O)C(O)(Cn1ccnc1)P(=O)(O)O [zoledronate]
- Intracellular IPP levels [1]: produced high levels of IPP
- Intracellular IPP levels [2]: did not produce IPP
- Intracellular IPP levels (T47D breast cancer cells; 1 h, high-dose zoledronate (doses 10 μM or 25 μM)): detectable over background
- Intracellular IPP levels (T47D breast cancer cells; 18 h, both doses (10 μM or 25 μM)): detectable over background
- Time at which control (untransduced) γδ T cells induced a cytotoxic effect (C4-2B-PSCA cells): approx. 18 h
- Effect of ZOL on cytolytic activity of γδ CAR-T (C4-2B-PSCA cells; ZOL 0.4 μM): greatly enhanced
- Percentage of CD3Vd2 positive cells in flushed tibias, higher than control ([3]; Day 1 after γδ T-cell injection): > 61%
- Percentage of CD3Vd2 positive cells in flushed tibias, higher than control ([3]; Day 3 after γδ T-cell injection): > 32%
- Percentage of CD3Vd2 positive cells in flushed tibias, higher than control ([3]; Day 5 after γδ T-cell injection): > 57%
- Apoptotic (cleaved caspase-3) cancer cells, tibia histology [3, 5]: increased apoptotic
- Proliferative (phospo-Histone H3) cancer cells, tibia histology [3, 5]: decreased proliferative
- C4-2B growth rate (bioluminescence) ([3]; zoledronate group compared to controls, all with γδ T-cells): significantly slower
- Effect of ZOL on IFNγ secretion ([4]; coculture of γδ (CAR−)T-cells with C4-2BPSCA cells, Zol 0, 0.4 and 0.8 μM): enhanced IFNγ secretion
- Effect of zoledronate on interferon production by γδ CAR-T cells [4, 6]: enhanced interferon production
- Effect of zoledronate on target recognition by GFP-transduced and untransduced γδ T cells [4, 6]: induced target recognition
- Effect of ZOL on IFNγ secretion ([4]; αβ T cells with C4-2BPSCA cells): not observed
- Effect of zoledronate on IL-2 secretion by γδ (CAR)-T cells (γδ (CAR)-T cells): increases IL-2 secretion
